We go through two molecules from PMC9084888, “FGFR2–BRD4 Axis Regulates Transcriptional Networks of Histone 3 Modification and Synergy Between Its Inhibitors and PD-1/PD-L1 in a TNBC Mouse Model” (Frontiers in Immunology, 2022).

Molecules are shown by their SMILES.

What all share (format): cell-based, mouse
One test has as its system c-Myc. Briefly: Western blot of c-Myc in treated Fgfr2-S252W tumor cells. To be noted: Figure 5F. Here is the method:
(§1) Total proteins of tumors or cells were extracted using RIPA buffer with phosphatase and a protease inhibitor. Following a previously described protocol, immunoblotting was carried out using ChemiDocTM with corresponding antibodies. The antibodies used for IHC and Western blot are listed in Supplementary Table S2 .
(§2) (C) Immunoblots with antibodies specific for the H3K9 acetylated lysine residues of histone H3 and pathway analysis of the activation of FGFR2 tumors or wild type (WT). […] (E) Assessment of the drug response of BGJ398, JQ1, or the combined treatment of Fgfr2-S252W tumor cells with the Alamar blue assay. […] (G) Inflammation analysis using real-time RT-PCR from Fgfr2-S252W or WT mouse. P-values by using GraphPad Prism 7 Software. **p < 0.01, ***p < 0.001, ****p < 0.0001.

The next test deals with BRD4. Briefly: Western blot of BRD4 in treated Fgfr2-S252W tumor cells. The conditions noted are these: Figure 5F. Here is the method:
as §1, §2

For the next test, the system named is Fgfr2-S252W tumor cells. Briefly: Alamar blue drug response assay of Fgfr2-S252W tumor cells. An excerpt: All animal experiments were approved by the University of Macau Animal Ethics Committee (under the protocol UMARE-015-2019). The generation of Fgfr2-S252W mice was described in a previous work ([19]). Transgenic mice were continually checked to accelerate the growth of mammary tumors. Tumor samples were cut using sharp blades into small pieces of about 0.1–0.3 cm in diameter and processed three ways, as follows: 1) two larger pieces were fixed in 10% formalin and processed for histology and immunohistochemistry (IHC) staining with antibodies; 2) three pieces were immediately frozen in liquid nitrogen and used for subsequent DNA, RNA, and protein isolation; and 3) all the remaining pieces were placed in a freezing medium [10% DMSO/25% serum/65% Dulbecco’s modified Eagle’s medium (DMEM)], slowly frozen to −80°C, and transferred into liquid nitrogen a few days later. […] Primary FGFR2 tumor cells were derived from the Fgfr2-S252W mouse model using a standard procedure and maintained in F-medium.
Figure 5 (A, B) RT-PCR analysis of the mRNA levels of Brd4 (A) and c-Myc (B) in tumors from the activation of Fgfr2-S252W transgenic mice. (C) Immunoblots with antibodies specific for the H3K9 acetylated lysine residues of histone H3 and pathway analysis of the activation of FGFR2 tumors or wild type (WT). […]
For orientation: Resazurin is reduced to fluorescent resorufin, in cell work by metabolically active cells.

In the case of `CCN1CCN(c2ccc(Nc3cc(N(C)C(=O)Nc4c(Cl)c(OC)cc(OC)c4Cl)ncn3)cc2)CC1` [BGJ398], the “inhibition of c-Myc (Western blot)” value in the test on c-Myc is recorded as “inhibit”. Also, the “inhibition of BRD4 (Western blot)” value with BRD4 is “inhibit”.
In the case of `Cc1sc2c(c1C)C(c1ccc(Cl)cc1)=N[C@@H](CC(=O)OC(C)(C)C)c1nnc(C)n1-2` [JQ1], in the test on c-Myc, the “inhibition of c-Myc (Western blot)” value was “inhibit”. Besides, the “inhibition of BRD4 (Western blot)” value in the test on BRD4 is on record as “inhibit”. Also, the “resistance of Fgfr2-S252W tumor cells” value with Fgfr2-S252W tumor cells is “still showed resistance”. In addition, the “drug response of Fgfr2-S252W cells” value with Fgfr2-S252W tumor cells (cell culture conditions, single agent, compared to response to FGFR inhibitor BGJ398) was “not very sensitive”.
